The term solubility denotes the dissolved amount per volume that the medium holds. Read a low solubility as little dissolved substance.

The nature of the data set: Assay (IV) determination of solubility. Type of data set: physicochemical. How it is done: Assay (IV)—Determination of Solubility
The mimylin peptide was dissolved in water at ˜500 nmol/ml and mixed 1:1 with a series of buffers (100 mM glycylglycine pH 3.0, 100 mM glycylglycine pH 4.0, 100 mM glycylglycine pH 5.0, 100 mM bistrispropane pH 6.0, 100 mM bistrispropane pH 6.5, 100 mM bistrispropane pH 7.0, 100 mM bistrispropane pH 7.5, 100 mM bistrispropane pH 8.0).

Each structure is given as a SMILES string. ≈ marks a conversion by molar mass, not a printed value. Numbered stars: 1 amine (or outer) side, 2 acyl side, 3 side chain; on linkers, the order of the positions; unused ones are H or OH. Peptide text beside a SMILES is read from it. * marks the point of attachment. C20 diacid = O=C(O)CCCCCCCCCCCCCCCCCCC(=O)*; C18 diacid = O=C(O)CCCCCCCCCCCCCCCCC(=O)*; γGlu = O=C(O)[C@H](CCC(=O)[*:2])N[*:1]

Consider `CC(C)C[C@H](NC(=O)[C@H](CCC(=O)O)NC(=O)[C@H](Cc1cnc[nH]1)NC(=O)[C@H](CC(C)C)NC(=O)[C@H](CCC(=O)O)NC(=O)[C@H](C)NC(=O)[C@H](CO)NC(=O)[C@H](CC(C)C)NC(=O)[C@H](CCCNC(=N)N)NC(=O)CNC(=O)[C@H](CC(C)C)NC(=O)[C@@H](NC(=O)[C@H](C)NC(=O)[C@@H](NC(=O)[C@@H](NC(=O)[C@H](CC(C)C)NC(=O)[C@H](CCC(=O)O)NC(=O)[C@H](CO)NC(=O)[C@H](C)NC(=O)CC[C@H](NC(=O)CCCCCCCCCCCCCCCCC(=O)O)C(=O)O)[C@@H](C)O)[C@@H](C)O)C(C)C)C(=O)N[C@@H](C)C(=O)N[C@H](C(=O)N[C@@H](CC(C)C)C(=O)N1CCC[C@H]1C(=O)N[C@@H](CCCNC(=N)N)C(=O)N[C@H](C(=O)N[C@@H](CCC(=O)O)C(=O)N[C@H](C(=O)NCC(=O)N[C@H](C(=O)NCC(=O)N[C@H](C(=O)N1CCC[C@H]1C(N)=O)[C@@H](C)O)[C@@H](C)O)[C@@H](C)O)[C@@H](C)O)[C@@H](C)O` [compound 95, [N-terminal(C18 diacid-gGlu), des1, 6T, 9V, 30T, 31G, 32T]mimylin] ({C18 diacid-γGlu}-ASELTTAVLGRLSAELHELATLPRTETGTGTP-NH2), for which the Solubility entry (pH 3.0) is “≧200 μM”; the Solubility entry (pH 4.0) is given as “≧200 μM”; the Solubility result (pH 5.0) is given as “≧200 μM”; the Solubility result (pH 6.0) is “≧200 μM”; the Solubility result (pH 6.5) was “≧200 μM”; the Solubility entry (pH 7.0) was “≧200 μM”. The Solubility entry is, setting by setting: (pH 7.5) “≧200 μM”; (pH 8.0) “≧200 μM”.
Turning to `CC(C)C[C@H](NC(=O)CNC(=O)[C@H](CO)NC(=O)[C@H](C)NC(=O)CC[C@H](NC(=O)CCCCCCCCCCCCCCCCCCC(=O)O)C(=O)O)C(=O)N[C@@H](CO)C(=O)N[C@H](C(=O)N[C@@H](C)C(=O)N[C@H](C(=O)N[C@@H](CC(C)C)C(=O)NCC(=O)N[C@@H](CCCNC(=N)N)C(=O)N[C@@H](CC(C)C)C(=O)N[C@@H](CO)C(=O)N[C@@H](CCC(N)=O)C(=O)N[C@@H](CCC(=O)O)C(=O)N[C@@H](CC(C)C)C(=O)N[C@@H](Cc1cnc[nH]1)C(=O)N[C@@H](CCC(=O)O)C(=O)N[C@@H](CC(C)C)C(=O)N[C@@H](CCC(N)=O)C(=O)N[C@H](C(=O)N[C@@H](Cc1ccc(O)cc1)C(=O)N1CCC[C@H]1C(=O)N[C@@H](CCCNC(=N)N)C(=O)N[C@H](C(=O)N[C@@H](CCC(=O)O)C(=O)N[C@H](C(=O)NCC(=O)N[C@@H](CO)C(=O)N[C@@H](C)C(=O)N[C@H](C(=O)N[C@@H](Cc1ccc(O)cc1)C(N)=O)[C@@H](C)O)[C@@H](C)O)[C@@H](C)O)[C@@H](C)O)C(C)C)[C@@H](C)O` [compound 122, [N-terminal(C20 diacid-gGlu), des1, 4G, 9V, 15Q, 21Q, 23Y, 30S, 31A, 32T, 33Y]mimylin] ({C20 diacid-γGlu}-ASGLSTAVLGRLSQELHELQTYPRTETGSATY-NH2), the Solubility entry is “≧200 μM” (pH 3.0); “≧200 μM” (pH 4.0); “≧200 μM” (pH 6.0); “≧200 μM” (pH 6.5); “≧200 μM” (pH 7.0); “≧200 μM” (pH 7.5). Moreover, the Solubility entry (pH 8.0) is on record as “≧200 μM”. The solubility at 18 h (pH 5.0) worked out at 32 µM (≈ 124 µg/mL).
As for `CC(C)C[C@H](NC(=O)[C@H](C)NC(=O)[C@H](C)NC(=O)[C@@H](NC(=O)[C@H](CO)NC(=O)[C@H](CC(C)C)NC(=O)[C@H](CCC(=O)O)NC(=O)[C@H](CO)NC(=O)[C@H](C)NC(=O)CC[C@H](NC(=O)CCCCCCCCCCCCCCCCC(=O)O)C(=O)O)[C@@H](C)O)C(=O)NCC(=O)N[C@@H](CCCNC(=N)N)C(=O)N[C@@H](CC(C)C)C(=O)N[C@@H](CO)C(=O)N[C@@H](C)C(=O)N[C@@H](CCC(=O)O)C(=O)N[C@@H](CC(C)C)C(=O)N[C@@H](Cc1cnc[nH]1)C(=O)N[C@@H](CCC(=O)O)C(=O)N[C@@H](CC(C)C)C(=O)N[C@@H](C)C(=O)N[C@H](C(=O)N[C@@H](CC(C)C)C(=O)N1CCC[C@H]1C(=O)N[C@@H](CCCNC(=N)N)C(=O)N[C@H](C(=O)N[C@@H](CCC(=O)O)C(=O)N[C@H](C(=O)NCC(=O)N[C@@H](CO)C(=O)N[C@@H](CCC(=O)O)C(=O)N[C@@H](CO)C(=O)N1CCC[C@H]1C(N)=O)[C@@H](C)O)[C@@H](C)O)[C@@H](C)O` [compound 23, [N-terminal(C18 diacid-gGlu), des1, 30S]mimylin] ({C18 diacid-γGlu}-ASELSTAALGRLSAELHELATLPRTETGSESP-NH2), the Solubility entry (pH 3.0) was “≧200 μM”; the Solubility result (pH 4.0) is listed as “≧200 μM”; the Solubility result (pH 5.0) is “≧200 μM”; the Solubility result (pH 6.0) is given as “≧200 μM”; the Solubility result (pH 6.5) was “≧200 μM”; the Solubility result (pH 7.0) is on record as “≧200 μM”. The Solubility entry was “≧200 μM” (pH 7.5) and “≧200 μM” (pH 8.0).
For `CC(C)C[C@H](NC(=O)CNC(=O)[C@H](CO)NC(=O)[C@H](C)NC(=O)CC[C@H](NC(=O)CCCCCCCCCCCCCCCCCCC(=O)O)C(=O)O)C(=O)N[C@@H](CO)C(=O)N[C@H](C(=O)N[C@@H](C)C(=O)N[C@@H](C)C(=O)N[C@@H](CC(C)C)C(=O)NCC(=O)N[C@@H](CCCNC(=N)N)C(=O)N[C@@H](CC(C)C)C(=O)N[C@@H](CO)C(=O)N[C@@H](C)C(=O)N[C@@H](CCC(=O)O)C(=O)N[C@@H](CC(C)C)C(=O)N[C@@H](Cc1cnc[nH]1)C(=O)N[C@@H](CCC(=O)O)C(=O)N[C@@H](CC(C)C)C(=O)N[C@@H](C)C(=O)N[C@H](C(=O)N[C@@H](Cc1ccc(O)cc1)C(=O)N1CCC[C@H]1C(=O)N[C@@H](CCCNC(=N)N)C(=O)N[C@H](C(=O)N[C@@H](CCC(=O)O)C(=O)N[C@H](C(=O)NCC(=O)N[C@@H](CO)C(=O)NCC(=O)N[C@@H](CO)C(=O)N1CCC[C@H]1C(N)=O)[C@@H](C)O)[C@@H](C)O)[C@@H](C)O)[C@@H](C)O` [compound 79, [N-terminal(C20 diacid-gGlu), des1, 4G, 23Y, 30S, 31G]mimylin] ({C20 diacid-γGlu}-ASGLSTAALGRLSAELHELATYPRTETGSGSP-NH2), the Solubility result by setting is: (pH 3.0) “≧200 μM”; (pH 4.0) “≧200 μM”; (pH 5.0) “≧200 μM”; (pH 6.0) “≧200 μM”; (pH 6.5) “≧200 μM”; (pH 7.0) “≧200 μM”. The Solubility entry runs as follows: (pH 7.5) “≧200 μM”; (pH 8.0) “≧200 μM”.
Turning to `CC(C)C[C@H](NC(=O)CNC(=O)[C@H](CO)NC(=O)[C@H](C)NC(=O)CC[C@H](NC(=O)CCCCCCCCCCCCCCCCCCC(=O)O)C(=O)O)C(=O)N[C@@H](CO)C(=O)N[C@H](C(=O)N[C@@H](CC(C)C)C(=O)N[C@H](C(=O)N[C@@H](CC(C)C)C(=O)NCC(=O)N[C@@H](CCCNC(=N)N)C(=O)N[C@@H](CC(C)C)C(=O)N[C@@H](CO)C(=O)N[C@@H](CCC(N)=O)C(=O)N[C@@H](CCC(=O)O)C(=O)N[C@@H](CC(C)C)C(=O)N[C@@H](Cc1cnc[nH]1)C(=O)N[C@@H](CCC(=O)O)C(=O)N[C@@H](CC(C)C)C(=O)N[C@@H](CCC(N)=O)C(=O)N[C@H](C(=O)N[C@@H](Cc1ccc(O)cc1)C(=O)N1CCC[C@H]1C(=O)N[C@@H](CCCNC(=N)N)C(=O)N[C@H](C(=O)N[C@@H](CCC(=O)O)C(=O)N[C@H](C(=O)NCC(=O)N[C@@H](CO)C(=O)N[C@@H](CCC(N)=O)C(=O)N[C@H](C(=O)N[C@@H](Cc1ccc(O)cc1)C(N)=O)[C@@H](C)O)[C@@H](C)O)[C@@H](C)O)[C@@H](C)O)C(C)C)[C@@H](C)O` [compound 126, [N-terminal(C20 diacid-gGlu), des1, 4G, 8L, 9V, 15Q, 21Q, 23Y, 30S, 31Q, 32T, 33Y]mimylin] ({C20 diacid-γGlu}-ASGLSTLVLGRLSQELHELQTYPRTETGSQTY-NH2), the Solubility result is recorded as “≧200 μM” (pH 3.0); “≧200 μM” (pH 6.5); “≧200 μM” (pH 7.0); “≧200 μM” (pH 7.5); “≧200 μM” (pH 8.0). Where the note is “pH 6.0”, this compound showed a solubility at 18 h of 161 µM (≈ 642 µg/mL).
`CC(C)C[C@H](NC(=O)[C@H](CCCNC(=N)N)NC(=O)CNC(=O)[C@H](CC(C)C)NC(=O)[C@@H](NC(=O)[C@H](C)NC(=O)[C@@H](NC(=O)[C@@H](NC(=O)[C@H](CC(C)C)NC(=O)[C@H](CCC(=O)O)NC(=O)[C@H](CO)NC(=O)[C@H](C)NC(=O)CC[C@H](NC(=O)CCCCCCCCCCCCCCCCC(=O)O)C(=O)O)[C@@H](C)O)[C@@H](C)O)C(C)C)C(=O)N[C@@H](CCC(=O)O)C(=O)N[C@@H](C)C(=O)N[C@@H](CCC(=O)O)C(=O)N[C@@H](CC(C)C)C(=O)N[C@@H](Cc1cnc[nH]1)C(=O)N[C@@H](CCC(=O)O)C(=O)N[C@@H](CC(C)C)C(=O)N[C@H](C(=O)N[C@H](C(=O)N[C@@H](CC(C)C)C(=O)N1CCC[C@H]1C(=O)N[C@@H](CCCNC(=N)N)C(=O)N[C@H](C(=O)N[C@@H](CCC(=O)O)C(=O)N[C@H](C(=O)NCC(=O)N[C@H](C(=O)NCC(=O)N[C@H](C(=O)N1CCC[C@H]1C(N)=O)[C@@H](C)O)[C@@H](C)O)[C@@H](C)O)[C@@H](C)O)[C@@H](C)O)[C@@H](C)O` [compound 106, [N-terminal(C18 diacid-gGlu), des1, 6T, 9V, 14E, 21T, 30T, 31G, 32T]mimylin] ({C18 diacid-γGlu}-ASELTTAVLGRLEAELHELTTLPRTETGTGTP-NH2): the Solubility result is given as “≧200 μM” (pH 3.0); “≧200 μM” (pH 4.0); “≧200 μM” (pH 5.0); “≧200 μM” (pH 6.0); “≧200 μM” (pH 6.5); “≧200 μM” (pH 7.0). Besides, the Solubility result is recorded as “≧200 μM” (pH 7.5) and “≧200 μM” (pH 8.0).

Values taken from patent US9593149B2, “Amylin and calcitonin receptor agonist” (Novo Nordisk A/S, priority 2014, dated 2017).
